Laboratory results: patent publication US20220289794A1, “SYNTHETIC ANTIMICROBIAL PEPTIDES” (priority 2019, published 2022)
Values after ≈ are worked out from the molar mass of the structure shown. Values joined by “and” are separate entries in the source; they are usually repeats but may differ in a detail not shown here. Equal entries are not always repeated. Where two headings read alike, the source gives them in different places. Non-standard residues stand in square brackets, D forms with d. Residues, ends and D or L forms follow the SMILES beside them. 2Nal = N[C@@H](Cc1ccc2ccccc2c1)C(=O)O

Legend:
[1] = system: Methicillin-resistant Staphylococcus aureus MRSA (ATCC BAA-1556); details: ATCC BAA-1556
[2] = system: human red blood cells; parameters: unit not given beside the values
[3] = system: S. aureus ATCC 29213; details: ATCC 29213
[4] = system: Staphylococcus aureus ATCC 33592 (MRSA) biofilm
Protocol: (§3) Bacteria. The bacterial strains employed in these assays were obtained from the American Type Culture Collection (ATCC). Each strain was propagated as recommended by the ATCC and each strain was stored as a frozen glycerol stock at −80° C.
(§4) Bacterial Propagation. […] Following the incubation, the culture was diluted to an optical density 625 nm (OD625) of 0.1 in cation adjusted Mueller Hinton Broth (CAMHB), which is equivalent to 1×10^8 CFU/mL. The culture was further diluted to 1×10^6 CFU/mL which was used for the assay.
(§5) Determination of the Temporal Effects of SPL7013 Addition to Inhibit Biofilm Formation. Each strain of bacteria was adjusted to a concentration of 1×10^6 CFU/mL and added to a 96-well flat-bottomed plate in a volume of 100 mL. One-hundred microliters (100 mL) of each compound at 10 concentrations was added in triplicate wells. The cultures were incubated for 24 hours at 37° C. under the appropriate growth conditions for each organism. Following the incubation, the media was removed, and the formed biofilms were fixed for 1 hour at 60° C. Two-hundred microliters (200 mL) of 0.06% crystal violet was added to the wells for 5 to 10 minutes and the wells were then gently washed three times with deionized H2O to remove the crystal violet. Following crystal violet staining 200 mL of 70% ethanol was added to the wells.

[5] = system: Pseudomonas aeruginosa (ATCC 27883); details: ATCC 27883
[6] = system: Clostridium difficile (NAP1/027); assay: MIC determination, broth microdilution (CLSI); assay type: cell-based
[7] = system: Clostridium difficile (ATCC 700057); assay: MIC determination, broth microdilution (CLSI); assay type: cell-based
[8] = system: Escherichia coli (ATCC 25922); details: ATCC 25922
[9] = system: P. aeruginosa strain ATCC 47085 biofilm
Protocol: as §3, §4, §5

[10] = system: Klebsiella pneumoniae (KPC, ATCC BAA-1705); assay: microbe, parasite or virus in culture; details: ATCCBAA1705, 24 h
[11] = system: Staphylococcus aureus ATCC 33592 (MRSA) biofilm; assay: microbe, parasite or virus in culture; details: read-out: inhibition of biofilm formation
Protocol: as §3, §4, §5

[12] = system: MRSA; assay: microbe, parasite or virus in culture; details: Staphylococcus aureus, ATCCBAA1556 / MRSA, read-out: MIC MRSA (ATCC BAA-1556)
[13] = system: Klebsiella pneumoniae (KPC, ATCC BAA-1705); details: Klebsiella pneumoniae (ATCC BAA-1705); antibiotic alone
[14] = system: Klebsiella pneumoniae (ATCC BAA-1705); assay: microbe, parasite or virus in culture
[15] = system: Klebsiella pneumoniae (KPC, ATCC BAA-1705); assay: microbe, parasite or virus in culture; details: ATCCBAA1705, 24 h, read-out: MIC of antibiotic
[16] = system: Pseudomonas aeruginosa (PSA, ATCC 27883); assay: microbe, parasite or virus in culture; details: ATCC27883, 24 h, read-out: Pseudomonas aeruginosa (ATCC 27883) MIC
[17] = system: Methicillin-resistant Staphylococcus aureus MRSA (ATCC BAA-1556); assay: microbe, parasite or virus in culture; details: read-out: MIC MRSA (ATCC BAA-1556)
[18] = system: Pseudomonas aeruginosa (ATCC 27883); assay: microbe, parasite or virus in culture
[19] = system: PSA; details: Table 37; peptides and peptide-capped gold nanoparticles
[20] = system: Escherichia coli (E. Coli, ATCC 25922); details: antibiotics alone and PHY-MIX (1:1 w/w)
[21] = system: E. coli; details: Table 37; peptides and peptide-capped gold nanoparticles
[22] = system: Pseudomonas aeruginosa (PSA, ATCC 27883); details: antibiotics alone and PHY-MIX (1:1 w/w)
[23] = system: Pseudomonas aeruginosa (PSA, ATCC 27883); assay: Synergy checkerboard assay (FIC index); assay type: cell-based; details: ATCC27883, 24 h; Table 25; Pseudomonas aeruginosa (ATCC 27883); antibiotic alone
[24] = system: KPC; details: Table 37; peptides and peptide-capped gold nanoparticles
[25] = system: Escherichia coli (ATCC 25922); assay: microbe, parasite or virus in culture
[26] = system: Escherichia coli (E. Coli, ATCC 25922); assay: microbe, parasite or virus in culture; details: ATCC25922, 24 h, read-out: Escherichia coli (ATCC 25922) MIC
[27] = system: Methicillin-Resistant Staphylococcus aureus (MRSA); details: previously shown (Oh et al. 2014), listed as [W4R4]; cited from earlier work
[28] = system: Klebsiella pneumoniae (ATCC BAA-1705); details: ATCC BAA-1705
[29] = system: E. coli; details: cited from earlier work
[30] = system: Methicillin-Resistant Staphylococcus aureus (MRSA); details: cited from earlier work
[31] = system: Klebsiella pneumoniae (ATCC BAA-1705); assay type: cell-based
Protocol: (§1) All bacteria pathogens tested clinically reported multi-drug resistant strains. The antibacterial activity was tested against Gram-negative strains namely; Pseudomonas aeruginosa (PSA), Klebsiella pneumoniae (KPC), Escherichia coli (E. coli) and Gram-positive Methicillin-resistant Staphylococcus aureus (MRSA). The minimum inhibitory concentration (MIC) is the lowest concentration of the antibiotic that inhibits microbial growths. MIC is determined by visual inspection or use of spectrophotometer plate reader to determine media turbidity. On the other hand, the minimum bactericidal concentration (MBC) is the lowest concentration that kills […] of bacterial growth. Cytotoxicity of peptides in the hepatic cell line, human skin fibroblast cell line, heart/myocardium cells, and human lung fibroblast cells is shown in FIGS. 36-46). […] (IFX-315)-Au-NP with antibiotics are shown in FIGS. 49-58 when the gold nanoparticles are formed by the peptide followed by addition of the antibiotic. […] (IFX-301) with antibiotics (1:1 ratio) first and then used in the synthesis of Au-NP in antibacterial activities is shown in FIGS. 59-68.
(§2) The MBC is identified by determining the lowest concentration of antibacterial agent that reduces the viability (concentration of peptides necessary to achieve a bactericidal effect) of the initial bacterial inoculum by ≥99.9%.

[32] = system: Escherichia coli (ATCC 25922); assay type: cell-based
Protocol: as §1, §2

[33] = system: Methicillin-resistant Staphylococcus aureus MRSA (ATCC BAA-1556); assay type: cell-based
Protocol: as §1, §2

[34] = system: Pseudomonas aeruginosa (ATCC 27883); assay type: cell-based; details: Table 22
Protocol: as §1, §2

[35] = system: Pseudomonas aeruginosa (PA01); details: previously shown (Oh et al. 2014), listed as [W4R4]; cited from earlier work
[36] = system: MRSA; assay: In vivo Galleria Mellonella Assay (MRSA infection); details: MRSA-infected G. mellonella, after one week

Compound: N=C(N)NCCC[C@H](NC(=O)[C@H](CCCNC(=N)N)NC(=O)[C@H](CCCNC(=N)N)NC(=O)[C@@H](N)CCCNC(=N)N)C(=O)N[C@@H](Cc1ccc2ccccc2c1)C(=O)N[C@@H](Cc1ccc2ccccc2c1)C(=O)N[C@@H](Cc1c[nH]c2ccccc12)C(=O)O [IFX-031-1, NH2-R-R-R-R-NaI-NaI-Trp-OH] (H-RRRR[2Nal][2Nal]W-OH)
- MIC MRSA ATCC BAA-1556 [1]: 6.2 µg/mL (≈ 5.07 µM)
- HC50 [2]: 450
- MIC S. aureus ATCC 29213 [3]: 6.2 µg/mL (≈ 5.07 µM)
- ability to prevent biofilm formation [4]: able to inhibit biofilm formation
- MIC P. aeruginosa ATCC 27883 [5]: 25 µg/mL (≈ 20.4 µM)
- MIC90 [6]: 25 µg/mL (≈ 20.4 µM)
- MIC95 [6]: > 50 µg/mL
- MIC99 [6]: 25 µg/mL (≈ 20.4 µM)
- MIC90 [7]: 25 µg/mL (≈ 20.4 µM)
- MIC95 [7]: 25 µg/mL (≈ 20.4 µM)
- MIC99 [7]: 25 µg/mL (≈ 20.4 µM)
- MIC E. coli ATCC 25922 [8]: 25 µg/mL (≈ 20.4 µM)
- ability to prevent biofilm formation [9]: able to inhibit biofilm formation

Compound: CN[C@H](CC(C)C)C(=O)N[C@H]1C(=O)N[C@@H](CC(N)=O)C(=O)N[C@H]2C(=O)N[C@H]3C(=O)N[C@H](C(=O)N[C@H](C(=O)O)c4cc(O)cc(O)c4-c4cc3ccc4O)[C@H](O)c3ccc(c(Cl)c3)Oc3cc2cc(c3O[C@@H]2O[C@H](CO)[C@@H](O)[C@H](O)[C@H]2O[C@H]2C[C@](C)(N)[C@H](O)[C@H](C)O2)Oc2ccc(cc2Cl)[C@H]1O [Vancomycin, reference compound]
- MIC ([10]; read-out: Klebsiella pneumoniae (ATCC BAA-1705) MIC, Table 28, IFX-031, antibiotics alone and PHY-MIX (1:1 w/w)): > 256 µg/mL
- MIC ([10]; read-out: Klebsiella pneumoniae (ATCC BAA-1705) MIC, Table 29, [R6W4] (IFX-318), antibiotics alone and PHY-MIX (1:1 w/w)): > 256 µg/mL
- MIC ([10]; read-out: Klebsiella pneumoniae (ATCC BAA-1705) MIC, Table 30, [R5W4K] (IFX-315), antibiotics alone and PHY-MIX (1:1 w/w)): > 256 µg/mL
- MIC ([10]; read-out: Klebsiella pneumoniae (ATCC BAA-1705) MIC, Table 31, [R5W4] (IFX-301), antibiotics alone and PHY-MIX (1:1 w/w)): > 64 µg/mL
- inhibition at 5000 µg/mL [11]: ~97%
- MIC [12]: 0.5 µg/mL (≈ 0.345 µM)
- MIC of antibiotic [13]: > 256 µg/mL
- MIC ([14]; ATCCBAA1705, read-out: KPC (ATCC BAA-1705) MIC): > 512 µg/mL
- MIC ([14]; ATCCBAA1705, read-out: MIC K. pneumoniae (ATCC BAA-1705)): > 256 µg/mL
- MIC [15]: > 256 µg/mL
- MIC [16]: > 64 µg/mL
- inhibition of biofilm formation ([4]; all other concentrations ([…] to 0.001 μg/mL)): approximately 50%
- MIC [17]: 0.5 µg/mL (≈ 0.345 µM)
- MIC ([18]; ATCC27883, read-out: MIC P. aeruginosa ATCC 27883): > 256 µg/mL
- MIC ([18]; ATCC27883, read-out: PSA (ATCC 27883 MIC)): > 512 µg/mL
- MIC90 [6]: 0.31 µg/mL (≈ 0.214 µM)
- MIC95 [6]: 0.31 µg/mL (≈ 0.214 µM)
- MIC99 [6]: 0.31 µg/mL (≈ 0.214 µM)
- MIC Pseudomonas aeruginosa (ATCC 27883) [19]: No effect
- Escherichia coli (ATCC 25922) MIC ([20]; Table 29, [R6W4] (IFX-318)): >64 µg/mL
- Escherichia coli (ATCC 25922) MIC ([20]; Table 30, [R5W4K] (IFX-315)): >64 µg/mL
- Escherichia coli (ATCC 25922) MIC ([20]; Table 31, [R5W4] (IFX-301)): >64 µg/mL
- MIC Escherichia coli (ATCC 25922) [21]: No effect
- Pseudomonas aeruginosa (ATCC 27883) MIC ([22]; Table 29, [R6W4] (IFX-318)): >64 µg/mL
- Pseudomonas aeruginosa (ATCC 27883) MIC ([22]; Table 30, [R5W4K] (IFX-315)): >64 µg/mL
- Pseudomonas aeruginosa (ATCC 27883) MIC ([22]; Table 31, [R5W4] (IFX-301)): >64 µg/mL
- MIC90 [7]: 0.63 µg/mL (≈ 0.435 µM)
- MIC95 [7]: 0.63 µg/mL (≈ 0.435 µM)
- MIC99 [7]: 0.63 µg/mL (≈ 0.435 µM)
- MIC [23]: > 256 µg/mL
- MIC Klebsiella pneumoniae (ATCC BAA-1705) [24]: No effect
- MIC ([25]; ATCC25922, read-out: E. coli (ATCC 25922) MIC): > 512 µg/mL
- MIC ([25]; ATCC25922, read-out: MIC E. coli (ATCC 25922)): > 256 µg/mL
- MIC [26]: > 64 µg/mL

Compound: N=C(N)NCCC[C@@H]1NC(=O)[C@H](CCCNC(=N)N)NC(=O)[C@H](CCCNC(=N)N)NC(=O)[C@H](Cc2c[nH]c3ccccc23)NC(=O)[C@H](Cc2c[nH]c3ccccc23)NC(=O)[C@H](Cc2c[nH]c3ccccc23)NC(=O)[C@H](Cc2c[nH]c3ccccc23)NC(=O)[C@H](CCCNC(=N)N)NC1=O [[R4W4], reference compound] (cyclo(RRRRWWWW))
- MRSA (ATCC BAA-1556) MIC [1]: 4 µg/mL
- MIC [27]: 2.67 μg/mL and 1.95 μM
- KPC (ATCC BAA-1705) MIC [28]: 32 µg/mL
- PSA (ATCC 27883 MIC) [5]: 64 µg/mL
- interaction with tetracycline in time-kill assays [29]: synergistically
- interaction with tetracycline in time-kill assays [30]: synergistically
- KPC (ATCC BAA-1705) MBC [31]: 64 µg/mL
- E. coli (ATCC 25922) MBC [32]: 32 µg/mL
- MRSA (ATCC BAA-1556) MBC [33]: 32 µg/mL
- PSA (ATCC 27883) MBC [34]: 128 µg/mL
- E. coli (ATCC 25922) MIC [8]: 16 µg/mL
- MIC [35]: 42.8 μg/mL and 31.3 μM
- larvae killed [36]: all
